These results are taken from ChEMBL document CHEMBL5291721, “A preclinical secondary pharmacology resource illuminates target-adverse drug reaction associations of marketed drugs” (Nat Commun, 2023).

For experiment [1], the target named is T1, Alpha-2A adrenergic receptor (Homo sapiens, UniProt P08913).
T1 sequence (P08913 whole entry): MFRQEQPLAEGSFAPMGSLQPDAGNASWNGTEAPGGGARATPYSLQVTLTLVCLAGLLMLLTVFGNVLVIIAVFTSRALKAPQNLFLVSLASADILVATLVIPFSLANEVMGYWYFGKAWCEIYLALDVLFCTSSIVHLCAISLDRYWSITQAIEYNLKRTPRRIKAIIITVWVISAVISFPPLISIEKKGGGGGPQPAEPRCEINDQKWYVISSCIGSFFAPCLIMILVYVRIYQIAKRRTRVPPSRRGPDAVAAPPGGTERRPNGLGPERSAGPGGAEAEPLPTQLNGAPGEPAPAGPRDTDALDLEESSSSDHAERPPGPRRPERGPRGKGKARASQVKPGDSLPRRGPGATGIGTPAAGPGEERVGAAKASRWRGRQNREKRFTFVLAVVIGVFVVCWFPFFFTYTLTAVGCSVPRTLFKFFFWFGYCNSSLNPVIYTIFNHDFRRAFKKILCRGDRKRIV

The target of the next experiment is T2, Androgen receptor (Rattus norvegicus, UniProt P15207).
T2 sequence (P15207 whole entry): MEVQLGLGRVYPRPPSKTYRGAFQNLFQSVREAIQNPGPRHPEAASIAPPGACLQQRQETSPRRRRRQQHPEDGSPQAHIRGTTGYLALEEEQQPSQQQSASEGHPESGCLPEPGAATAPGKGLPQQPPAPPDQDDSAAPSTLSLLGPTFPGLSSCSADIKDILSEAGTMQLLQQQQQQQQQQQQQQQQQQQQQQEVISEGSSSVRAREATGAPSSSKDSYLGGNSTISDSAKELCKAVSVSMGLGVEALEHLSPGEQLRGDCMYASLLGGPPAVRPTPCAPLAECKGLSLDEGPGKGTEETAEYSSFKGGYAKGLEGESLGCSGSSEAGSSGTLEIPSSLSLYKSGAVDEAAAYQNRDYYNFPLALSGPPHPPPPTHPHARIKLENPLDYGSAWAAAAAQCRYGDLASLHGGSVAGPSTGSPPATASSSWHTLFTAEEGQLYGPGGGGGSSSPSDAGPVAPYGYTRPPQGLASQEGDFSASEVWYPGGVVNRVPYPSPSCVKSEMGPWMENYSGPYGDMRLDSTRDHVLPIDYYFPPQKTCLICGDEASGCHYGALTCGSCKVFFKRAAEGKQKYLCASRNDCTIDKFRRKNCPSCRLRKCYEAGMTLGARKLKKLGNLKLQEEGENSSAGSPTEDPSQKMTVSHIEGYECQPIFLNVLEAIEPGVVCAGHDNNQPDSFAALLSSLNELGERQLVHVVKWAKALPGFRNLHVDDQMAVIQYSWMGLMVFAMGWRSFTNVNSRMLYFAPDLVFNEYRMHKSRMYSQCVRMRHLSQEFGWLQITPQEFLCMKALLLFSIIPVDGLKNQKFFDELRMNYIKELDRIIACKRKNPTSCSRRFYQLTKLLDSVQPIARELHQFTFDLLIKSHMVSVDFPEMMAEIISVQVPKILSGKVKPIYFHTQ
It counts as functional.
Note: assay procedure not described here.

`CCN(CC)C(=O)C1CN2CCc3cc(OC)c(OC)cc3C2CC1OC(C)=O` (centres undefined) [BENZQUINAMIDE]: the values for the AC50 (in experiment [1]; on Androgen receptor) were 3.03 µM and more than 30 µM, respectively.

At Androgen receptor, `CCN(CC)CC(=O)Oc1ccc(NC(C)=O)cc1` [PROPACETAMOL] showed an AC50 of more than 30 µM.

Turning to `Cc1cc2nc3c(=O)[nH]c(=O)nc-3n(C[C@H](O)[C@H](O)[C@H](O)COP(=O)(O)O)c2cc1C` [RIBOFLAVIN 5'-PHOSPHATE], at Androgen receptor, the AC50 is more than 3 µM.
